Data taken from patent publication US12622953B2, “Vaccines targeting neoepitopes” (Evaxion Biotech A/S, priority 2019, dated 2026).
Entries after “also recorded” stand apart in the source; their conditions may differ.

Tested on: neo-peptide specific CD8+ T cells
Test: MHC I multimer staining of whole blood after i.p. immunization
Type: in vivo, BALB/c mice
Conditions: endpoint day 28, 2.0 μg C22 i.p.
Method: 6-8 weeks old BALB/c JrJ femal mice were acquired from Janvier Labs. The mice were acclimated for one week before initiation of the experiment. The mice had ad libitum access to water and standard chow pellets. The experiment was conducted under license 2017-15-0201-01338 from the Danish Animal Experimentation Inspectorate in accordance with the Danish Animal Experimentation Act, which is stricter and therefore fully compliant with the European directive (2010/63/EU). The mice were ear tagged to allow for identification of individuals.
To avoid “cage effects” all treatment groups were represented in each cage. Mice in groups 1, 2, 3 and 4 (the cluster immunization groups) were intraperitoneally (i.p.) immunized at day 0, 1, 2, 3, 7, 14 and 21 with 0.4, 2.0, 10.0 and 50.0 μg of C22 admixed with CAF09b, respectively. Corresponding groups (5, 6, 7 and 8) were vaccinated according to a traditional prime-boost strategy on days 0, 14 and 21 with solutions identical to what group 1, 2, 3 and 4 received. Dosing volumes for the mice were 200 μl for all vaccines.
The C22 peptide was synthesised by GenScript and aliquoted into 0.8 mg portions as a lyophilized product. The peptide was solubilized in DMSO to a concentration of 10 mg/ml by adding 80 μl DMSO to each aliquot. The peptide stock was then diluted 10 times in sterile water (80 μl peptide stock+720 μl sterile water). […]

QIETQQRKFKASRASILSEMKMLKEKR (listed as Mus musculus) [Peptide C22]
MHC:C22 positive CD8+ T cells in blood (cluster primed): low-frequency MHC:C22 positive CD8+ T cells were detected; also recorded: small increase
neo-peptide specific CD8+ cells in blood (standard prime-boost schedule): hardly any
